In US6770287B1, “Biocidal cellulosic material” (The Regents of the University of California, priority 2000, dated 2004):
Marks after values point to notes of the source that are not given here.

Tested on: E. coli enhanced green fluorescent protein (B)GFP 0157:H7
Experiment: Biocidal wood blocks: CFU recovered after contact
Assay type: cell-based
Conditions: for average percent reduction of bacterium as compared to the untreated control blocks: estimated from the data of all trials
Method: The blocks were prepared by dividing large cutting boards into squares with sides measuring 5 cm using a table saw. The blocks were of the face-grain configuration. The edges were then smoothened with 120 or 180 grit sandpaper as needed to achieve uniformity among all blocks. The blocks were visually inspected to be the correct size and any blocks that appeared to deviate from the standard were remeasured and discarded if they were an incorrect size.
The blocks (Bemis Manufacturing Company, 300 Mill Street, PO Box 901, Sheboygan Falls, Wis., 53085-0901) were labeled based on concentration and ascending numbers. The blocks were immersed in solutions containing the following two formulations, respectively: […]
And the blocks were taken out from the solutions after they are completely soaked by the chemicals, and then dried at 80° C. in an oven for a prolonged time till they are completely dry. The curing of the blocks was conducted at 150° C. for over 30 minutes.
A bleach process is necessary to activate the biocide. A bleach solution containing about 0.05% sodium hypochlorite was prepared from a commercial Clorox liquid (containing 5.25% sodium hypochlorite). The volume of the solution was based on a liquid to wood mass ratio of 50:1. The blocks were scrubbed lightly on a sponge saturated with the chlorine solution from the bath for five strokes. The blocks were placed face down in the diluted bleach solution for 15 minutes. After 15 minutes the blocks were transferred directly to a cooling rack (to allow even drying) in a laminar flow hood that had been previously sterilized with a 70% ethanol solution and left with the exhaust turned on. The blocks were then left in the laminar flow hood until completely dry (at least five hours).
1. A sample of E. coli enhanced green fluorescent protein (B)GFP 0157:H7 was inoculated into a test tube of LB broth with 0.01% ampicillin and 0.01% novobiocin antibiotics (to be referred to as LBAN). The test tube was labeled and then incubated at 37° C. for 24 hours. The sample was then serial diluted with LBAN broth. 0.1 mL of the broth was then inoculated onto LB or Brain Heart Infusion (BHI) agar, also with ampicillin and 0.01% novobiocin antibiotics. The concentrations of 10^−7, 10^−6, and 10^−5 were spread plated. These plates were allowed to incubate for 24 hours at 37° C. The CFU/mL was determined by averaging the colonies from the plates of the most easily countable concentration.
7. The timer was started and the inoculum was spread on the blocks at the rate of one per 30 seconds.
8. 0.2 mL of the inoculum was spread onto the blocks using the pipet tip and pipetter. A new pipet tip was used for each block.
9. After the correct (variable) contact time, the blocks were carefully pressed on the agar surface for 20 seconds and then the plates were inverted and placed in an incubator at 37° C. for 24 hours.
10. The colonies were counted for each plate and thus the kills were determined for each concentration.

[1] = trial A, 5% biocide, inoculum 2.5 × 10^5, contact time 5 minutes
[2] = trial A, 10% biocide, inoculum 2.5 × 10^5, contact time 5 minutes
[3] = trial B, 5% biocide, inoculum 1.8 × 10^5, contact time 5 minutes
[4] = trial B, 10% biocide, inoculum 1.8 × 10^5, contact time 5 minutes
[5] = trial C, 5% biocide, inoculum 1.4 × 10^5, contact time 5 minutes
[6] = trial C, 10% biocide, inoculum 1.4 × 10^5, contact time 5 minutes
[7] = trial D, 5% biocide, inoculum 1.4 × 10^5, contact time 5 minutes
[8] = trial D, 10% biocide, inoculum 1.4 × 10^5, contact time 5 minutes
[9] = trial E, 5% biocide, inoculum 1.0 × 10^4, contact time 5 minutes
[10] = trial E, 10% biocide, inoculum 1.0 × 10^4, contact time 5 minutes
[11] = trial F, 5% biocide, inoculum 1.0 × 10^4, contact time 5 minutes
[12] = trial F, 10% biocide, inoculum 1.0 × 10^4, contact time 5 minutes
[13] = trial G, 5% biocide, inoculum 3.3 × 10^4, contact time 2.5 minutes
[14] = trial G, 10% biocide, inoculum 3.3 × 10^4, contact time 2.5 minutes
[15] = trial H, 5% biocide, inoculum 3.3 × 10^4, contact time 5 minutes
[16] = trial H, 10% biocide, inoculum 3.3 × 10^4, contact time 5 minutes
[17] = trial I, 5% biocide, inoculum 1.0 × 10^4, contact time 5 minutes
[18] = trial I, 10% biocide, inoculum 1.0 × 10^4, contact time 5 minutes
[19] = trial J, 1st line, 5% biocide, inoculum 1.37 × 10^5, contact time 5 minutes
[20] = trial J, 1st line, 10% biocide, inoculum 1.37 × 10^5, contact time 5 minutes
[21] = trial J, 2nd line, 5% biocide, inoculum 1.37 × 10^5, contact time 5 minutes
[22] = trial J, 2nd line, 10% biocide, inoculum 1.37 × 10^5, contact time 5 minutes
[23] = trial K, New Blocks, 5% biocide, inoculum 1.2 × 10^4, contact time 5 minutes
[24] = trial K, New Blocks, 10% biocide, inoculum 1.2 × 10^4, contact time 5 minutes
[25] = trial K, Old Blocks, 5% biocide, inoculum 1.2 × 10^4, contact time 5 minutes
[26] = trial K, Old Blocks, 10% biocide, inoculum 1.2 × 10^4, contact time 5 minutes
[27] = trial L, New Blocks, 5% biocide, inoculum 8.0 × 10^1, contact time 5 minutes
[28] = trial L, New Blocks, 10% biocide, inoculum 8.0 × 10^1, contact time 5 minutes
[29] = trial L, Old Blocks, 5% biocide, inoculum 8.0 × 10^1, contact time 5 minutes
[30] = trial L, Old Blocks, 10% biocide, inoculum 8.0 × 10^1, contact time 5 minutes
[31] = trial M, New Blocks, 5% biocide, inoculum 6.45 × 10^3, contact time 10 minutes
[32] = trial M, New Blocks, 10% biocide, inoculum 6.45 × 10^3, contact time 10 minutes
[33] = trial M, Old Blocks, 5% biocide, inoculum 6.45 × 10^3, contact time 10 minutes
[34] = trial M, Old Blocks, 10% biocide, inoculum 6.45 × 10^3, contact time 10 minutes
[35] = trial N, New Blocks, 5% biocide, inoculum 6.6 × 10^4 CFU/mL, contact time 10 minutes
[36] = trial N, New Blocks, 10% biocide, inoculum 6.6 × 10^4 CFU/mL, contact time 10 minutes
[37] = trial N, Old Blocks, 5% biocide, inoculum 6.6 × 10^4 CFU/mL, contact time 10 minutes
[38] = trial N, Old Blocks, 10% biocide, inoculum 6.6 × 10^4 CFU/mL, contact time 10 minutes

## CC1(C)C(=O)N(CO)C(=O)N1CO [Anti-2, 1,3-dimethylol-5,5-dimethylhydantoin]
5% blocks
  average percent reduction of bacterium as compared to the untreated control blocks: about 86%
10% concentration blocks
  average percent reduction of bacterium as compared to the untreated control blocks: 91%
[1]
  means CFU/block ± standard deviation: 125.3 ± 74.1 CFU/block
  percentage reduction compared to control: (85.0%)**
[2]
  means CFU/block ± standard deviation: 166.3 ± 132.2 CFU/block
  percentage reduction compared to control: (81.2%)**
[3]
  means CFU/block ± standard deviation: 11.6 ± 11.4 CFU/block
  percentage reduction compared to control: (97.6%)
[4]
  means CFU/block ± standard deviation: 26.3 ± 27.6 CFU/block
  percentage reduction compared to control: (94.5%)
[5]
  means CFU/block ± standard deviation: 65 ± 23.5 CFU/block
  percentage reduction compared to control: (85.4%)
[6]
  means CFU/block ± standard deviation: 48 ± 44.2 CFU/block
  percentage reduction compared to control: (89.2%)
[7]
  means CFU/block ± standard deviation: 19.8 ± 6.8 CFU/block
  percentage reduction compared to control: (95.0%)
[8]
  means CFU/block ± standard deviation: 26.8 ± 20.1 CFU/block
  percentage reduction compared to control: (93.2%)
[9]
  means CFU/block ± standard deviation: 2.5 ± 2.9 CFU/block
  percentage reduction compared to control: (97.7%)
[10]
  means CFU/block ± standard deviation: 2.3 ± 3.4 CFU/block
  percentage reduction compared to control: (97.8%)
[11]
  means CFU/block ± standard deviation: 25.9 ± 13.8 CFU/block
  percentage reduction compared to control: (94.3%)
[12]
  means CFU/block ± standard deviation: 31.7 ± 25.1 CFU/block
  percentage reduction compared to control: (93.1%)
[13]
  means CFU/block ± standard deviation: 20.8 ± 13.8 CFU/block
  percentage reduction compared to control: (89.8%)
[14]
  means CFU/block ± standard deviation: 10.3 ± 7.8 CFU/block
  percentage reduction compared to control: (95.0%)
[15]
  means CFU/block ± standard deviation: 14 ± 11.4 CFU/block
  percentage reduction compared to control: (80.1%)
[16]
  means CFU/block ± standard deviation: 7.4 ± 4.0 CFU/block
  percentage reduction compared to control: (89.9%)
[17]
  means CFU/block ± standard deviation: 12.3 ± 8.4 CFU/block
  percentage reduction compared to control: (73.8%)
[18]
  means CFU/block ± standard deviation: 6 ± 4.2 CFU/block
  percentage reduction compared to control: (87.2%)
[19]
  means CFU/block ± standard deviation: 63.7 ± 45.1 CFU/block
  percentage reduction compared to control: (80.6%)
[20]
  means CFU/block ± standard deviation: 37.9 ± 14.3 CFU/block
  percentage reduction compared to control: (88.5%)
[21]
  means CFU/block ± standard deviation: 45.8 ± 19.2 CFU/block
  percentage reduction compared to control: (85.8%)
[22]
  means CFU/block ± standard deviation: 14.6 ± 12.5 CFU/block
  percentage reduction compared to control: (95.5%)
Trial J, 3rd line, 5% biocide, inoculum 1.37 × 10^5, contact time 5 minutes
  means CFU/block ± standard deviation: 37.4 ± 15.8 CFU/block
Trial J, 3rd line, 10% biocide, inoculum 1.37 × 10^5, contact time 5 minutes
  means CFU/block ± standard deviation: 29.7 ± 25.1 CFU/block
[23]
  means CFU/block ± standard deviation: 7.7 ± 3.0 CFU/block
  percentage reduction compared to control: (90.7%)
[24]
  means CFU/block ± standard deviation: 4.9 ± 5.8 CFU/block
  percentage reduction compared to control: (94.1%)
[25]
  means CFU/block ± standard deviation: 12.0 ± 9.4 CFU/block
  percentage reduction compared to control: (77.3%)
[26]
  means CFU/block ± standard deviation: 9.3 ± 5.4 CFU/block
  percentage reduction compared to control: (82.4%)
[27]
  means CFU/block ± standard deviation: 0.17 ± 0.41 CFU/block
  percentage reduction compared to control: (98.1%)
[28]
  means CFU/block ± standard deviation: 0 ± 0 CFU/block
  percentage reduction compared to control: (100%
[29]
  means CFU/block ± standard deviation: 1.3 ± 1.3 CFU/block
  percentage reduction compared to control: (88.9%)
[30]
  means CFU/block ± standard deviation: 0.67 ± 0.71 CFU/block
  percentage reduction compared to control: (94.3%)
[31]
  means CFU/block ± standard deviation: 3.3 ± 2.4 CFU/block
  percentage reduction compared to control: (60.2%
[32]
  means CFU/block ± standard deviation: 1.6 ± 1.8 CFU/block
  percentage reduction compared to control: (80.7%)
[33]
  means CFU/block ± standard deviation: 3.3 ± 2.1 CFU/block
  percentage reduction compared to control: (82.4%)
[34]
  means CFU/block ± standard deviation: 3.3 ± 2.4 CFU/block
  percentage reduction compared to control: (82.4%)
[35]
  means CFU/block ± standard deviation: 17.8 ± 4.8 CFU/block
  percentage reduction compared to control: (88.2%)
[36]
  means CFU/block ± standard deviation: 6.2 ± 5.8 CFU/block
  percentage reduction compared to control: (95.9%)
[37]
  means CFU/block ± standard deviation: 20.7 ± 6.1 CFU/block
  percentage reduction compared to control: (86.5%)
[38]
  means CFU/block ± standard deviation: 15.9 ± 6.7 CFU/block
  percentage reduction compared to control: (89.6%)
Trials J-N, new versus old blocks
  more effective reductions of the bacterium on newer blocks than on old blocks: 5-10%
